Assay results published in patent EP0340198B1, “Immunoassay for the detection of alpha-haloacetamides” (priority 1988, dated 1989).

What was measured:
[1] = system: antibodies isolated from the serum of the first bleed of the rabbit; assay: affinity column binding of 14C-labeled analytes from aqueous solution; settings: for binding by the affinity column: 14C-labeled analogs, test of non-specific binding
Method: Affinity Chromatography. The preparation of affinity columns using rabbit antisera was as follows: The rabbit IgG's were purified by passing 5 mL of the antiserum through a column containing 5 mL of the swelled protein A-agarose gel. By monitoring the absorbance at 280 nm in the column effluent, the non-bound proteins were removed by washing with PBS, and the IgG's were then eluted with acetic acid at pH 2.3 (0.58% acetic acid and 0.15 M NaCl). The fractions containing the IgG's were combined and neutralized; based on the UV absorbance at 280 nm (absorbance/1.4 = mg/mL protein), approximately 33 mg of IgG were isolated from 5 mL of serum, which was then lyophilized and stored at -20°C. The reusable protein A-agarose column was stored in PBS containing 0.02% sodium azide at 4°C.
The protein A-purified IgG was immobilized onto Affigel-10 affinity support. Affigel-10 (5 mL) was washed 3 times with isopropyl alcohol and 3 times with cold distilled water in a Buchner funnel. The gel was then added to a solution of IgG (3 mL in 0.1 M HEPES buffer, pH 7.5) at 4°C. Following 4 hrs of stirring, the gel was precipitated by gentle centrifugation and washed with HEPES buffer (3 x 3 mL). The remaining active sites on the gel were blocked by resuspending the gel in water (2 mL) and adding ethanolamine HCl (0.5 mL, 1M), and stirring the mixture at 22°C for 1 hr. The affinity column was useful in adsorbing alachlor and other analytes from aqueous solutions. After binding the alachlor, the column was washed with water (2 mL/min) to remove unbound material and alachlor was eluted with 75% aqueous methanol.
Using the antibodies isolated from the serum of the first bleed of the rabbit, an affinity column for alachlor was constructed to study its utility as an isolation and purification tool. The IgG's in the serum of the rabbit immunized with the alachlor-IgG conjugate were purified with a protein A-agarose column. The purified IgG was then immobilized onto the Affigel-10 support. Alachlor (¹⁴C-labeled) in aqueous solution was passed through the column with a flow rate of 2 mL/min; the column was washed with water and eluted with 75% aqueous methanol. The radioactivity in the wash and eluent were determined by liquid scintillation counting. […] The capacity of the column was less than 1 µg, and once this level was exceeded, alachlor no longer bound to the column. The recovery of applied radioactivity generally ranged from 80% to 100%. In a second experiment, alachlor (0.5 µg) was dissolved into increasing volumes of water ranging from 1 mL to 100 mL.
To eliminate the possibility of non-specific binding of alachlor to the affinity column, other ¹⁴C-labeled analogs were also studied. These included acetanilide herbicides butachlor, acetochlor, metolachlor, and propachlor and the previously mentioned alachlor metabolites mercapturate and its methyl ester. The affinity column bound butachlor and acetochlor, but not metolachlor, propachlor, or mercapturate.

[2] = system: alachlor antibodies; assay: inhibition ELISA for alachlor (cross-reactivity studies); assay type: binding, rabbit; settings: for reaction (cross-reactivity) with the antibodies, in words: relative to alachlor; for ELISA % Absorbance MEAN (n = 20): antisera from bleed seven
Method: Immunoassays. A known "checkerboard assay" was initially conducted with each serum sample after the first boost to detect the production of antibodies against alachlor. […] The next 7 rows received the subsequent dilutions of the screening antigen. The plate was covered with Parafilm and stored overnight at 4°C. The next morning, the unbound screening antigen was removed from the wells by washing three times with phosphate buffered saline solution (0.01 M phosphate buffer of pH 7.4, 0.15 M NaCl; PBS). The remaining active sites in the wells were blocked with PBS-8% non-fat dry milk solution, (NFDM, 0.3 mL) for 1 hr at 22°C. Serum, which had been stored at -20°C, was freshly thawed and serially diluted (one to two) from 1,000 to 64,000-fold using PBS-T (PBS containing 0.02% Tween 20). Starting with the most concentrated solution, 0.1 mL of the serum solution was pipetted into all 8 wells of column 1; the remaining columns received the subsequent dilutions of the serum solution. The plate was covered and incubated at 22°C for 1.5 hrs. Following triplicate washes of the wells with PBS-T, each of the wells received 0.1 mL of goat anti-rabbit gamma-globulin conjugated to horseradish peroxidase (GAR-HRP) freshly thawed and diluted 4,000 fold with PBS-1% NFDM. After a final wash cycle (4 times) with PBS-T, freshly prepared O-phenylene diamine (PDA) substrate solution (0.2 mL, 0.04 mg/mL PDA and 0.01% H₂O₂ in 0.05 M citric acid and 0.15 M sodium dibasic phosphate, pH 5.0) was dispensed into each of the wells and incubated in the dark at 22°C for 30-60 min. Sulfuric acid (4 N, 50 µL) was added to each of the wells to stop the reaction, and the final absorbances of the wells (490 nm) were recorded.
The inhibition ELISA required one additional step in the assay procedure described above. Equal volumes of the diluted serum and aqueous alachlor standard or unknown sample were mixed and preincubated at 22°C for 1 hr. This mixture (0.1 mL/well) was then analyzed in 6 replicate wells on the plate. The presence of free alachlor inhibited the binding of the antibody to the alachlor-BSA conjugate, resulting in an inhibition of the development of absorbance at 490 nm. The amount of free alachlor was indirectly proportional to the intensity of color developed. Levels of alachlor in unknown water samples were calculated based on the alachlor standards on the same plate. Alachlor standards (0, 0.2, 0.5, 1.0, 3.0, 5.0, and 8.0 ppb in deionized water) were stored at -20°C in 1-mL portions, and were freshly thawed for each assay.
Data Calculations. The lay-out of a typical 96-well microtiter plate is 8 rows of 12 columns in an inhibition ELISA assay for alachlor. The first 6 wells in the first column of wells were not coated with the screening antigen and served as the background wells. The first 6 wells in the remaining 7 columns of wells were reserved for the seven alachlor standards (0 to 8 ppb) listed above. The remaining wells in all 8 rows were used for the samples. The uncorrected absorbances of the wells determined by the Bio-tek reader were used in the following calculations. The median was calculated for the 6 replicate background wells and was then subtracted from the medians of the standards and samples. All the median values were divided by the median of the standard without alachlor (0 ppb) to generate percentages of absorbances. The percent absorbance of the alachlor standards was then plotted on the Y axis against the logarithm (base 10) of the actual concentrations of alachlor on the X axis. A hyperbolic curve was drawn through the standards, and the resulting standard curve was used to calculate the concentrations of alachlor in the unknown samples.
The calculations described above were usually carried out using a computer program.

| SMILES | binding by the affinity column [1] | percent cross-reactivity ([2]; bleed four) [%] | cross-reactivity in the subsequent bleeds ([2]; bleeds after bleed four) | reaction (cross-reactivity) with the antibodies, in words [2] | extraction of alachlor by the column ([1]; 0.5 µg per 1 mL to 0.5 µ/50 mL (0.5 ppm to 10 ppb) in water) | efficiency of alachlor extraction by the column reduced by ([1]; 0.5 µg/100 mL (5 ppb) in water) [%] | capacity of the column ([1]; alachlor) | ELISA % Absorbance MEAN (n = 20) ([2]; Alachlor Conc. 0.2 ppb) [%] | ELISA % Absorbance MEAN (n = 20) ([2]; Alachlor Conc. 0.5 ppb) [%] | ELISA % Absorbance MEAN (n = 20) ([2]; Alachlor Conc. 1.0 ppb) [%] | ELISA % Absorbance MEAN (n = 20) ([2]; Alachlor Conc. 3.0 ppb) [%] | ELISA % Absorbance MEAN (n = 20) ([2]; Alachlor Conc. 5.0 ppb) [%] | ELISA % Absorbance MEAN (n = 20) ([2]; Alachlor Conc. 8.0 ppb) [%] | percent cross-reactivity ([2]; IC50 of alachlor divided by IC50 of analog x 100, bleed not stated) [%] |
| --- | --- | --- | --- | --- | --- | --- | --- | --- | --- | --- | --- | --- | --- | --- |
| CCOCN(C(=O)CCl)c1c(C)cccc1CC [Acetochlor, acetochlor] | bound | 10 | decreased slightly | little to no interaction | – | – | – | – | – | – | – | – | – | – |
| CCc1cccc(CC)c1N(COC)C(=O)CCl [Alachlor, α-chloro-2′,6′-diethyl-N-methoxymethyl acetanilide] | – | – | – | – | effectively extracted | 50 | less than 1 µg | 78.1 | 55.3 | 37.4 | 22.9 | 17.7 | 11.3 | 100 |
| CC(C)N(C(=O)CCl)c1ccccc1 [Propachlor, propachlor] | not | – | – | little to no interaction | – | – | – | – | – | – | – | – | – | – |
